For four compounds, LD50, ED50 and TD50 results are on record in patent publication US4356188A, “1-Naphthyl-acetic acid derivatives and their therapeutic applications” (Institut de Recherche Scientifique "I.R.S.", priority 1978, dated 1982).

One data set can be described thus: in vivo. Conditions: rat, po, read-out: Acute toxicity LD 50. As for the experimental part:
Groups of 5 male CH. River rats, having an average weight of 125 g, kept on a water diet for 18 hours prior to the test, are orally administered the test materials, dissolved in neutral olive oil (1 ml/100 g), at dosages of 250-500-1000 and 2000 mg/kg.
The death rate is recorded 7 days after the administration: the lethal dose 50 (LD 50) is determined according to the method by Litchfield & Wilcoxon.

Data set [1] in a line: Anti-inflammatory activity: carrageenin-induced plantar edema test (Winter). The format is in vivo. The conditions noted are these: Rattus norvegicus; rats, oral, 1 hour before 1% carrageenin; mean of 7 hourly determinations; dosages in method 25-50-100 mg/kg; read-out: Anti-inflammatory activity ID 50. The procedure:
The test selected is the test of the carrageenin-induced plantar edema, according to Winter (Proc. Soc. Exp. Biol., 1961, 111, 544). […] A fourth group (control) is administered only neutral olive oil (1 ml/100 g). One hour after the treatment, 0.1 ml of a 1% carrageenin suspension is injected in the left plantar aponevrosis. The intensity of the edema is evaluated by immersing the inflamed paw in a mercury plethystometer. The percent inhibition of the edema is calculated from the mean value of the 7 determinations made hourly after carrageenin administration. The dosage which inhibits inflammation by 50% (ID 50) is determined in the same manner as previously described.

Data set [2] is described as follows: Anti-pyretic activity: brewer's yeast-induced fever. The format is in vivo. Conditions: Rattus norvegicus; rats, oral, 17 hours after brewer's yeast; mean of 5 hourly determinations; dosages in method 25-50-100 mg/kg; read-out: Anti-pyretic activity ID 50. As for the experimental part:
After determination of the rectal temperature, rats are sub-cutaneously administered 1 ml/100 g of a 20% brewer's yeast suspension, and are put on a water diet. 17 hours later, their temperature is again determined. The mean increase of the rectal temperature, under such experimental conditions, is about 1.5° C. The various test materials are then orally administered to groups of 10 rats (average weight: 140 g) at dosages of 25-50 and 100 mg/kg. A fourth group (control) is administered only olive oil (1 ml/100 g). The temperature drop subsequent to the treatment is followed hourly, for a period of time of 5 hours. The mean percent inhibition is calculated by effecting the mean of the 5 determinations, with respect to the value 1.5° C.

A short description of data set [3]: Antalgic activity: phenylbenzoquinone-induced writhing (Sigmund, modified). The format is in vivo, male Ch. River mice. Conditions: Mus musculus, po; mice, p.o., 30 minutes before phenylbenzoquinone; spasms counted fifth to tenth minute; dosages in method 25-50-100 mg/kg; read-out: Antalgic activity ID 50. The procedure:
The method used is that according to Sigmund and co-workers (Soc. Exp. Biol. Med. 1957, 95, 729) as modified by Hendershot & Forsaith (J. Pharm. Exp. Therap. 1959, 125, 237-240) and Lines & Gouret (J. Pharm. (Paris) 1972, 3, 513-515). Intraperitoneal administration of 0.25 ml/20 g, in mice, of a 0.02% phenylbenzoquinone solution in 5% alcohol, produces the development of a pain syndrome which is characterized by writhing movements and by hollow flanks. Treatment of groups of 10 male Ch. River mice (average weight: 20 g) at dosages of 25-50 and 100 mg/kg p.o. (a control group being administered only neutral olive oil; 0.5 ml/20 g) is effected 30 minutes prior to phenylbenzoquinone administration. The ID 50 is calculated as previously indicated, from the percent inhibition of the spasms counted from the fifth to the tenth minute that follow the injection of the algogenic agent.

Data set [4] can be described thus: Ulcerogenic activity (Robert & Nezamis, modified by Lwoff). Conditions: rat, in vivo. Also on record: species or system rats of Ch. River strain. As for the experimental part: The technique used is that according to Robert & Nezamis (Proc. Soc. Exp. Biol. Med., 1958,99,443-447) as modified by Lwoff (J. Pharmacol. (Paris) 1971, 2, 81-83).
Groups of 20 rats of Ch. River strain (average weight: 130 g) kept on a water diet for the 24 hours prior to the test, are orally administered the test materials, at dosages of 50-100-200-400 and 800 mg/kg. A reference group is administered only neutral olive oil, at a dosage of 1 ml/100 g.
Six hours later, the animals are sacrificed by bulbar trauma, after which their stomachs are cut out, opened along the great curvature and rated according to a scale from 0 to 3, according to the extent of the ulceration.
The ulceration index for each dosage is calculated according to the following formula: [formula]
With this scoring method, a 100% ulceration index is equal to 300. The 50% ulcerogenic dosage (UD 50) is that which corresponds to an index of 150.

Where two headings read alike, the source gives them in different places.

For `CC(C)Cc1cccc2c(CC(=O)O)cccc12` [Derivative 1, [5-isobutyl-1-naphthyl]acetic acid], in “in vivo”, the LD50 at 168 h is 600 mg/kg. The results for the ED50 in data set [1], in data set [2] and in data set [3] were 15 mg/kg, 0.7 mg/kg and 24 mg/kg, respectively. In data set [4] (po), this compound returned a TD50 at 6 h greater than 800 mg/kg.
Consider `CC(C)Cc1cccc2c(C(C)C(=O)O)cccc12` (centres unmarked) [Derivative 2, 2-[5-isobutyl-1-naphthyl]propionic acid], for which the LD50 at 168 h in the data set “in vivo” was found to be 130 mg/kg. Also, the ED50 in data set [1] was 5 mg/kg; in data set [2] it was less than 1 mg/kg; in data set [3] it was 4 mg/kg.
Take `CC(C)Cc1ccc(C(C)C(=O)O)cc1` (centres unmarked) [ibuprofen, reference compound]: the ED50 amounted to 38 mg/kg in data set [1], 12 mg/kg in data set [2] and 9 mg/kg in data set [3]. In addition, the TD50 at 6 h in data set [4] (po) worked out at 220 mg/kg.
In the case of `COc1ccc2cc([C@H](C)C(=O)O)ccc2c1` [naproxen, reference compound], the ED50 in data set [1] is 3 mg/kg; in data set [2] it was 4.1 mg/kg; in data set [3] it was 10.6 mg/kg. In data set [4] (rats, oral, 6 hours, dose giving ulceration index 150, dosages in method 50-800 mg/kg, read-out: Ulcerogenic activity UD 50), the TD50 at 6 h is 43 mg/kg.
